According to US10669272B2, “Substituted naphthyridinone compounds useful as T cell activators” (BRISTOL-MYERS SQUIBB COMPANY, priority 2018, dated 2020):
pIC50: −log10 of the molar value. Where two headings read alike, the source gives them in different places.

Columns and labels:
[1] = target: T1, human DGKα (Homo sapiens, UniProt P23743); assay: DGKα LIPGLO assay (extruded liposome substrate), in vitro DGK inhibition; type: biochemical; conditions: read-out: DGKa LIPGLO IC50
T1 construct: TVMV protease cleavage site (C); Hexa-His (C); made in house; host or cells: Sf9 insect cells (baculovirus, Bac-to-Bac)
T1 sequence (P23743 with tags, fused parts or gaps): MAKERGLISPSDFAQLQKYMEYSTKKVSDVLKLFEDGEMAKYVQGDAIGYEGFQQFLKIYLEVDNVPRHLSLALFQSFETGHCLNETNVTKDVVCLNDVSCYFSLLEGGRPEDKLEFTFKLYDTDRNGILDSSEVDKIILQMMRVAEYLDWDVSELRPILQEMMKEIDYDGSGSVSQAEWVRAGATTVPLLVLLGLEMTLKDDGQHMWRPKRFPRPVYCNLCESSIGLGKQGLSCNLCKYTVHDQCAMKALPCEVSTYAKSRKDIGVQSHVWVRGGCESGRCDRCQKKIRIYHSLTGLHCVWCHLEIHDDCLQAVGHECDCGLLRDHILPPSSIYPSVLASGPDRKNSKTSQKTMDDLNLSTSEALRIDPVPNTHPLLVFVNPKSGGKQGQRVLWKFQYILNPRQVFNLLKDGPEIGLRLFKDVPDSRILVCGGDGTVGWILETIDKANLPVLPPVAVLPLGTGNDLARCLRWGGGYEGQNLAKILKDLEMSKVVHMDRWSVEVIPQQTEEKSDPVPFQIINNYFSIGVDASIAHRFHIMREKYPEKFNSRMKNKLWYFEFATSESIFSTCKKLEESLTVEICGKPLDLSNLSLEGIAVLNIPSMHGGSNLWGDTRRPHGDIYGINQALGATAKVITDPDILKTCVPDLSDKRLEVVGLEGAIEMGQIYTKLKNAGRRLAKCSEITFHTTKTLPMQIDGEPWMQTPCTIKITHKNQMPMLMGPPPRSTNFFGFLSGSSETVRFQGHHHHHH

[2] = target: T2, human DGKζ (Homo sapiens, UniProt Q13574); assay: DGKζ LIPGLO assay (extruded liposome substrate), in vitro DGK inhibition; type: biochemical; conditions: read-out: DGKz LIPGLO IC50
T2 construct: TVMV protease cleavage site (C); Hexa-His (C); made in house; host or cells: Sf9 insect cells (baculovirus, Bac-to-Bac)
T2 sequence (Q13574 with tags, fused parts or gaps isoform Q13574-4): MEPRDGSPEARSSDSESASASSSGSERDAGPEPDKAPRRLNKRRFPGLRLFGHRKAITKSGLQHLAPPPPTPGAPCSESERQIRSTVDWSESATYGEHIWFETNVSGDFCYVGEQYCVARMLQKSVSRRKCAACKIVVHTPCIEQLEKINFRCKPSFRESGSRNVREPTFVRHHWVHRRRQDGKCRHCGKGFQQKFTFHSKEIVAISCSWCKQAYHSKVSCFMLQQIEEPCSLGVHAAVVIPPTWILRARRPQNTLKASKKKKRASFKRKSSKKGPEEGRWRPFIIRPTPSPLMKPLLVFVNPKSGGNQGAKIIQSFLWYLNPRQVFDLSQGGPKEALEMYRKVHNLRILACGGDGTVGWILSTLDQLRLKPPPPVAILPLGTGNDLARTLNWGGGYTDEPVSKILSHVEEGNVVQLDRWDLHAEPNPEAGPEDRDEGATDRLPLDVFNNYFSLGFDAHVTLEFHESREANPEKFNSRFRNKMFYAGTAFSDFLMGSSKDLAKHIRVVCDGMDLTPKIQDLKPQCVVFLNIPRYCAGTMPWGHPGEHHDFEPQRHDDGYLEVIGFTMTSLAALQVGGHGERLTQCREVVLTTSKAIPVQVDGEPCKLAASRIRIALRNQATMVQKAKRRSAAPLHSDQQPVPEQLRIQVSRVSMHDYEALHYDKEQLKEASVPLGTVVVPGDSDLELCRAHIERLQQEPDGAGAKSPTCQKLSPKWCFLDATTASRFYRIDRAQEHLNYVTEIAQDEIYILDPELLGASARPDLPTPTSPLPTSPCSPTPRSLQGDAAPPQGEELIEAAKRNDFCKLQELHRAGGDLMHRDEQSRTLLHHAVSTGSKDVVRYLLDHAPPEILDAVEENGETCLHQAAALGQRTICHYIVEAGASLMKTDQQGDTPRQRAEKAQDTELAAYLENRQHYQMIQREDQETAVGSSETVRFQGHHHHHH

C[C@@H]1CN(c2cc(=O)n(C)c3ccc(C#N)nc23)[C@@H](C)CN1C(c1ccc(F)cc1)c1cnccn1 (single isomer, unassigned) [Example 675]
pIC50 ([1]; liposome (LIPGLO) assay): 5.34
pIC50 ([2]; liposome (LIPGLO) assay): 4.64

C[C@@H]1CN(c2cc(=O)n(C)c3ccc(C#N)nc23)[C@@H](C)CN1C(CO)c1ccc(C(F)(F)F)cn1 (stereo partly drawn) [Example 1279, 8-((2S,5R)-4-(2-hydroxy-1-(5-(trifluoromethyl)pyridin-2-yl)ethyl)-2,5-dimethylpiperazin-1-yl)-5-methyl-6-oxo-5,6-dihydro-1,5-naphthyridine-2-carbonitrile]
pIC50 ([1]; liposome (LIPGLO) assay): 5.85
pIC50 ([2]; liposome (LIPGLO) assay): 5.85

CC[C@H]1CN(C(c2ccc(F)cc2)c2csc(C(F)(F)F)n2)[C@H](CC)CN1c1cc(=O)n(C)c2ccc(C#N)nc12 (single isomer, unassigned) [Example 1361]
pIC50 ([1]; liposome (LIPGLO) assay): 7.96
pIC50 ([2]; liposome (LIPGLO) assay): 7.96

CC(c1cccc(OC(F)F)c1)N1C[C@H](C)N(c2cc(=O)n(C)c3ccc(C#N)nc23)C[C@H]1C (single isomer, unassigned) [Example 1271]
pIC50 ([1]; liposome (LIPGLO) assay): 6.82
pIC50 ([2]; liposome (LIPGLO) assay): 7.52

COC(=O)C1CN(C(c2ccc(F)cc2)c2ccc(F)cc2)CCN1c1c(Br)c(=O)n(C)c2ccc(C#N)nc12 (centres unmarked) [Example 162, Methyl 4-(bis(4-fluorophenyl)methyl)-1-(3-bromo-6-cyano-1-methyl-2-oxo-1,2-dihydro-1,5-naphthyridin-4-yl)piperazine-2-carboxylate]
pIC50 ([1]; liposome (LIPGLO) assay): 5.72
pIC50 ([2]; liposome (LIPGLO) assay): 5.62

C[C@@H]1CN(c2cc(=O)n(C)c3ccc(C#N)nc23)[C@@H](C)CN1Cc1cccc(N(C)C)c1 [Example 573]
pIC50 ([1]; liposome (LIPGLO) assay): 5.37
pIC50 ([2]; liposome (LIPGLO) assay): 6.19

CCC(c1ccc(OC(C)(C)C)cc1)N1C[C@H](C)N(c2cc(=O)n(C)c3ccc(C#N)nc23)C[C@H]1C (single isomer, unassigned) [Example 1444]
pIC50 ([1]; liposome (LIPGLO) assay): 5.00
pIC50 ([2]; liposome (LIPGLO) assay): 6.32

CC[C@H]1CN(C(C)c2cc(F)c(F)c(F)c2)[C@H](C)CN1c1cc(=O)n(C)c2ccc(C#N)nc12 (single isomer, unassigned) [Example 1382]
pIC50 ([1]; liposome (LIPGLO) assay): 6.18
pIC50 ([2]; liposome (LIPGLO) assay): 7.22

C[C@@H]1CN(c2cc(=O)n(C)c3ccc(C#N)nc23)[C@@H](C)CN1C(c1ccc(F)cc1)c1cnccn1 (single isomer, unassigned) [Example 674]
pIC50 ([1]; liposome (LIPGLO) assay): 6.40
pIC50 ([2]; liposome (LIPGLO) assay): 5.37

C[C@@H]1CN(c2c(C#N)c(=O)n(C)c3ccc(C#N)nc23)[C@@H](C)CN1C(c1ccc(F)cc1)c1ccns1 (single isomer, unassigned) [Example 855]
pIC50 ([1]; DGKα liposome (LIPGLO) assay): 4.57
pIC50 ([2]; DGKζ liposome (LIPGLO) assay): 4.70

C[C@@H]1CN(c2c(C#N)c(=O)n(C)c3ccc(C#N)nc23)[C@@H](C)CN1C(c1ccc(F)cc1)c1cc(C2CC2)on1 (single isomer, unassigned) [Example 869]
pIC50 ([1]; DGKα liposome (LIPGLO) assay): 4.77
pIC50 ([2]; DGKζ liposome (LIPGLO) assay): 4.85

C[C@@H]1CN(c2cc(=O)n(C)c3ccc(C#N)nc23)[C@@H](C)CN1C(c1ccc(Cl)cc1)c1ccc(F)c2c1OC(C)(C)C2 (single isomer, unassigned) [Example 459]
pIC50 ([1]; liposome (LIPGLO) assay): 4.44
pIC50 ([2]; liposome (LIPGLO) assay): 5.96

CC[C@@H]1CN(c2cc(=O)n(C)c3ccc(C#N)nc23)[C@@H](C)CN1C(C)c1c(F)cc(F)cc1F (single isomer, unassigned) [Example 1090]
pIC50 ([1]; liposome (LIPGLO) assay): 5.39
pIC50 ([2]; liposome (LIPGLO) assay): 5.74

C[C@@H]1CN(c2cc(=O)n(C)c3ccc(C#N)nc23)[C@@H](C)CN1C(c1ccc(F)cc1)c1cn(C)cn1 (some centres unmarked) [Example 708]
pIC50 ([1]; liposome (LIPGLO) assay): 6.00
pIC50 ([2]; liposome (LIPGLO) assay): 4.43

CC(c1ccc(Br)cc1)N1C[C@H](C)N(c2c(C#N)c(=O)n(C)c3ccc(C#N)nc23)C[C@H]1C (single isomer, unassigned) [Example 789]
pIC50 ([1]; DGKα liposome (LIPGLO) assay): 5.92
pIC50 ([2]; DGKζ liposome (LIPGLO) assay): 5.15

C[C@@H]1CN(c2c(C#N)c(=O)n(C)c3ccc(C#N)nc23)CCN1C(c1ccc(Cl)cc1)c1ncccc1F (some centres unmarked) [Example 909]
pIC50 ([1]; DGKα liposome (LIPGLO) assay): 5.47
pIC50 ([2]; DGKζ liposome (LIPGLO) assay): 4.80

Cc1ccc(C(c2ccc(Cl)cc2)N2C[C@H](C)N(c3c(C#N)c(=O)n(C)c4ccc(C#N)nc34)C[C@H]2C)cc1 (some centres unmarked) [Example 825]
pIC50 ([1]; DGKα liposome (LIPGLO) assay): 4.64
pIC50 ([2]; DGKζ liposome (LIPGLO) assay): 5.49

CC(C)[C@H]1CN(C(c2ccc(F)cc2)c2ccc(F)cc2)[C@@H](C)CN1c1cc(=O)n(C)c2ccc(C#N)nc12 [Example 125, 8-((2S,5S)-4-(bis(4-fluorophenyl)methyl)-2-isopropyl-5-methylpiperazin-1-yl)-5-methyl-6-oxo-5,6-dihydro-1,5-naphthyridine-2-carbonitrile]
pIC50 ([1]; liposome (LIPGLO) assay): 4.44
pIC50 ([2]; liposome (LIPGLO) assay): 3.62

CC[C@@H]1CN(c2cc(=O)n(C)c3ccc(C#N)nc23)[C@@H](CC)CN1Cc1ccc(F)cc1 [Example 1061]
pIC50 ([1]; liposome (LIPGLO) assay): 7.96
pIC50 ([2]; liposome (LIPGLO) assay): 7.00

CC(c1cccc(C(F)(F)F)c1)N1CCN(c2c(C#N)c(=O)n(C)c3ccc(C#N)nc23)C[C@H]1C (single isomer, unassigned) [Example 972]
pIC50 ([1]; DGKα liposome (LIPGLO) assay): 4.70
pIC50 ([2]; DGKζ liposome (LIPGLO) assay): 4.82

Cc1cc(C(C)N2C[C@H](C)N(c3cc(=O)n(C)c4ccc(C#N)nc34)C[C@H]2C)no1 (single isomer, unassigned) [Example 648]
pIC50 ([1]; liposome (LIPGLO) assay): 6.23
pIC50 ([2]; liposome (LIPGLO) assay): 5.41

Cc1nc2c(C(C)N3C[C@H](C)N(c4cc(=O)n(C)c5ccc(C#N)nc45)C[C@H]3C)cccc2o1 (single isomer, unassigned) [Example 1260]
pIC50 ([1]; liposome (LIPGLO) assay): 4.27
pIC50 ([2]; liposome (LIPGLO) assay): 7.07

COC(=O)c1ccc(C(C)N2C[C@H](C)N(c3c(C#N)c(=O)n(C)c4ccc(C#N)nc34)C[C@H]2C)cc1 (single isomer, unassigned) [Example 794]
pIC50 ([1]; DGKα liposome (LIPGLO) assay): 4.62
pIC50 ([2]; DGKζ liposome (LIPGLO) assay): 3.92

CC(c1ccc(OC(F)(F)F)cc1)N1C[C@@H](C)N(c2cc(=O)n(C)c3ccc(C#N)nc23)C[C@@H]1CO (single isomer, unassigned) [Example 1181]
pIC50 ([1]; liposome (LIPGLO) assay): 4.11
pIC50 ([2]; liposome (LIPGLO) assay): 5.60

CC(c1ccc(C#N)c(OCCN(C)C)c1)N1C[C@H](C)N(c2cc(=O)n(C)c3ccc(C#N)nc23)C[C@H]1C (single isomer, unassigned) [Example 1323]
pIC50 ([1]; liposome (LIPGLO) assay): 3.89
pIC50 ([2]; liposome (LIPGLO) assay): 5.15

CC[C@H]1CN(C(C)c2ccc(C3CC3)cc2F)[C@H](CC)CN1c1cc(=O)n(C)c2ccc(C#N)nc12 (single isomer, unassigned) [Example 1357]
pIC50 ([1]; liposome (LIPGLO) assay): 6.92
pIC50 ([2]; liposome (LIPGLO) assay): 7.70

COCC(c1ccc(F)cc1)N1C[C@H](C)N(c2cc(=O)n(C)c3ccc(C#N)nc23)C[C@H]1C (single isomer, unassigned) [Example 560]
pIC50 ([1]; liposome (LIPGLO) assay): 6.24
pIC50 ([2]; liposome (LIPGLO) assay): 5.54

CC(c1ccc(C(=O)O)cc1)N1CCN(c2c(C#N)c(=O)n(C)c3ccc(C#N)nc23)C[C@H]1C (some centres unmarked) [Example 973]
pIC50 ([1]; DGKα liposome (LIPGLO) assay): < 3.60
pIC50 ([2]; DGKζ liposome (LIPGLO) assay): < 3.60

CC(C)Oc1ccccc1CN1C[C@H](C)N(c2cc(=O)n(C)c3ccc(C#N)nc23)C[C@H]1C [Example 595]
pIC50 ([1]; liposome (LIPGLO) assay): 6.41
pIC50 ([2]; liposome (LIPGLO) assay): 5.33

C[C@@H]1CN(c2c(C#N)c(=O)n(C)c3ccc(C#N)nc23)CCN1C(c1ccc(F)cc1)c1cccc2c1OC(C)(C)C2 (single isomer, unassigned) [Example 934]
pIC50 ([1]; DGKα liposome (LIPGLO) assay): 5.07
pIC50 ([2]; DGKζ liposome (LIPGLO) assay): 5.27

CC(c1c(F)cc(F)cc1F)N1C[C@H](C)N(c2cc(=O)n(C)c3ccc(C#N)nc23)C[C@H]1C (single isomer, unassigned) [Example 488]
pIC50 ([1]; liposome (LIPGLO) assay): 4.82
pIC50 ([2]; liposome (LIPGLO) assay): 4.96

Cn1c(=O)c(C#N)c(N2CCN(C(c3ccc(F)cc3)c3ccc(F)cc3)C(C(=O)O)C2)c2nc(Br)ccc21 (centres unmarked) [Example 52, 1-(bis(4-fluorophenyl)methyl)-4-(6-bromo-3-cyano-1-methyl-2-oxo-1,2-dihydro-1,5-naphthyridin-4-yl)piperazine-2-carboxylic acid]
pIC50 ([1]; liposome (LIPGLO) assay): 4.62
pIC50 ([2]; liposome (LIPGLO) assay): 3.82

C[C@@H]1CN(c2cc(=O)n(C)c3ccc(C#N)nc23)[C@@H](C)CN1Cc1nnc(C(F)(F)F)o1 [Example 1436]
pIC50 ([1]; liposome (LIPGLO) assay): 4.96
pIC50 ([2]; liposome (LIPGLO) assay): 5.25

COC[C@@H]1CN(c2cc(=O)n(C)c3ccc(C#N)nc23)[C@@H](C)CN1C(C)c1ccc(OC(F)(F)F)cc1 (single isomer, unassigned) [Example 1162]
pIC50 ([1]; liposome (LIPGLO) assay): 6.32
pIC50 ([2]; liposome (LIPGLO) assay): 6.26

CC[C@@H]1CN(c2cc(=O)n(C)c3ccc(C#N)nc23)[C@@H](C)CN1C(CC1CCCCC1)c1ccc(OC(F)(F)F)cc1 (some centres unmarked) [Example 1196]
pIC50 ([1]; liposome (LIPGLO) assay): 5.85
pIC50 ([2]; liposome (LIPGLO) assay): 6.57

CC(C)Oc1cc(F)ccc1CN1C[C@H](C)N(c2cc(=O)n(C)c3ccc(C#N)nc23)C[C@H]1C [Example 598]
pIC50 ([1]; liposome (LIPGLO) assay): 6.47
pIC50 ([2]; liposome (LIPGLO) assay): 5.74

Cc1nc2ccc(C(C)N3C[C@H](C)N(c4cc(=O)n(C)c5ccc(C#N)nc45)C[C@H]3C)cc2s1 (single isomer, unassigned) [Example 1263]
pIC50 ([1]; liposome (LIPGLO) assay): 6.02
pIC50 ([2]; liposome (LIPGLO) assay): 6.82

CC[C@@H]1CN(c2cc(=O)n(C)c3ccc(C#N)nc23)[C@@H](C)CN1C(C)c1ccc(OC(F)(F)F)cc1F (single isomer, unassigned) [Example 1095]
pIC50 ([1]; liposome (LIPGLO) assay): 7.57
pIC50 ([2]; liposome (LIPGLO) assay): 7.74

C[C@@H]1CN(c2cc(=O)n(C)c3ccc(C#N)nc23)[C@@H](C)CN1C(c1ccc(C#N)cc1)c1ccc(F)cn1 (stereo partly drawn) [Example 464, 8-((2S,5R)-4-((4-cyanophenyl)(5-fluoropyridin-2-yl)methyl)-2,5-dimethylpiperazin-1-yl)-5-methyl-6-oxo-5,6-dihydro-1,5-naphthyridine-2-carbonitrile]
pIC50 ([1]; liposome (LIPGLO) assay): 6.55
pIC50 ([2]; liposome (LIPGLO) assay): 5.77

Cn1c(=O)cc(N2CCN(C(c3ccc(F)cc3)c3ccc(F)cc3)CC2C(N)=O)c2nc(C#N)ccc21 (single isomer, unassigned) [Example 141, 4-(bis(4-fluorophenyl)methyl)-1-(6-cyano-1-methyl-2-oxo-1,2-dihydro-1,5-naphthyridin-4-yl)piperazine-2-carboxamide]
pIC50 ([1]; liposome (LIPGLO) assay): 3.62
pIC50 ([2]; liposome (LIPGLO) assay): 3.70

Cc1nnc(C(C)N2C[C@H](C)N(c3cc(=O)n(C)c4ccc(C#N)nc34)C[C@H]2C)o1 (some centres unmarked) [Example 1437]
pIC50 ([1]; liposome (LIPGLO) assay): 3.82

CC[C@H]1CN(C(c2ccc(F)cc2)c2nc(C3CC3)no2)[C@H](CC)CN1c1cc(=O)n(C)c2ccc(C#N)nc12 (some centres unmarked) [Example 1065]
pIC50 ([2]; liposome (LIPGLO) assay): 7.51

C[C@@H]1CN(c2cc(=O)n(C)c3ccc(C#N)nc23)[C@@H](C)CN1Cc1cn(C)nn1 [Example 1435]
pIC50 ([1]; liposome (LIPGLO) assay): 3.80
